What is called Ki is the dissociation constant of the complex between target and ligand, obtained from inhibition or displacement.

SMILES strings stand for the structures. Where two headings read alike, the source gives them in different places.

Results on three compounds are retold here after paper PMC3303611 (Journal of Medicinal Chemistry, 2012).

One assay addresses H3 receptor (Homo sapiens, UniProt Q9Y5N1). Kind of assay: GTP-γ-S assay performed by the Psychoactive Drug Screening Program. It counts as biochemical.
The test system of the next assay is brain H3 receptors. Kind of assay: PET imaging of [18F]9 in monkey. It counts as in vivo, rhesus monkey. To be noted: [18F]9 Vt, two monkeys, ciproxifan pretreatment.
The target of another assay is rat H3 receptors. To be noted: known, ref not given; cited from earlier work.
The test system of another assay is human H3 receptors. To be noted: human vs rat H3; known, ref not given; cited from earlier work.

Sequence of H3 receptor (Q9Y5N1 whole entry): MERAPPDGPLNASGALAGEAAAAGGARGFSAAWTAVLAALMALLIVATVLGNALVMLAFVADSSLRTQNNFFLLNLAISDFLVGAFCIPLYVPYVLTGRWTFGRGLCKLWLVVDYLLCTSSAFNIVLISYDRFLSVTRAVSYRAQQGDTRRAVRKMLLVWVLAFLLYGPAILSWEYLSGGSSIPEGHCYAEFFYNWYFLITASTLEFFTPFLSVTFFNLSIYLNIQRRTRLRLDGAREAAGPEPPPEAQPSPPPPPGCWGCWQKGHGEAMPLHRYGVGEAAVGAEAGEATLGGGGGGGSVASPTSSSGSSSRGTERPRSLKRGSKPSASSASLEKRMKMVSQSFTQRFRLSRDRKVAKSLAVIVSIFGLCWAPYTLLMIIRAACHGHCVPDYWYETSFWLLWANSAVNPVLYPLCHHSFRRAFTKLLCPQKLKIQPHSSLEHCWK

In the case of `C[C@@H]1CCCN1CCc1cc2cc(C(=O)c3ccc(F)cc3)ccc2o1` [Compound 9, (R)-(2-(2-(2-methylpyrrolidin-1-yl)ethyl)benzofuran-5-yl)(4-fluorophenyl)methanone], the intrinsic activity result at H3 receptor is reported as “inverse agonists”.
Turning to `O=C(c1ccc(OCCCc2c[nH]cn2)cc1)C1CC1` [ciproxifan], the “Mean Vt decrease” value is -26% in the assay on brain H3 receptors (Cerebellum); -34% in the assay on brain H3 receptors (Frontal cortex); -33% with brain H3 receptors (Hippocampus); -26% with brain H3 receptors (Striatum); -33% with brain H3 receptors (Thalamus). In addition, the inhibition constant Ki on rat H3 receptors was 0.51 nM. For the same compound, the “lower affinity for human H3 receptors than for rat H3 receptors” value in the assay with human H3 receptors was “over 100 fold”.
Take `C[C@@H]1CCCN1CCc1cc2cc(C(=O)c3ccc([N+](=O)[O-])cc3)ccc2o1` [Compound 12, (R)-(2-(2-(2-Methylpyrrolidin-1-yl)ethyl)benzofuran-5-yl)(4-nitrophenyl)methanone]: the intrinsic activity result on H3 receptor (GTP-γ-S assay, Psychoactive Drug Screening Program) is listed as “inverse agonists”.
